ChEMBL document CHEMBL1201861, “Genomics of Drug Sensitity in Cancer screening data, Wellcome Trust Sanger Institute”

These compounds were tested on COR-L88 (assay: cells). Settings: Homo sapiens, COR-L88.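 Also: growth inhibition of COR-L88 cells, read out with a cell viability assay.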
Format: functional, cell-based, Homo sapiens
Description: SANGER: Inhibition of human COR-L88 cell growth in a cell viability assay.

| SMILES | IC50 |
| --- | --- |
| C[C@@H](Oc1cc(-c2cnn(C3CCNCC3)c2)cnc1N)c1c(Cl)ccc(F)c1Cl [CRIZOTINIB] | > 2000 nM |

What follows are compounds tested on DMS-114 (assay: cells). Settings: Homo sapiens, DMS-114.
Format: functional, cell-based, Homo sapiens

| SMILES | IC50 |
| --- | --- |
| C[C@@H](Oc1cc(-c2cnn(C3CCNCC3)c2)cnc1N)c1c(Cl)ccc(F)c1Cl [CRIZOTINIB] | > 2000 nM |

These compounds were tested on OCUB-M (assay: cells). Settings: Homo sapiens.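 Also: growth inhibition of the cancer cell line, read out through a cell viability assay.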
Format: functional, cell-based
Description: SANGER: Inhibition of human OCUB-M cell growth in a cell viability assay.

| SMILES | IC50 |
| --- | --- |
| C[C@@H](Oc1cc(-c2cnn(C3CCNCC3)c2)cnc1N)c1c(Cl)ccc(F)c1Cl [CRIZOTINIB] | > 2000 nM |

Each compound was assayed on RCC10RGB (assay: cells). Settings: Homo sapiens, RCC10RGB.
Format: functional, cell-based, Homo sapiens
Description: SANGER: Inhibition of human RCC10RGB cell growth in a cell viability assay.

| SMILES | IC50 |
| --- | --- |
| C[C@@H](Oc1cc(-c2cnn(C3CCNCC3)c2)cnc1N)c1c(Cl)ccc(F)c1Cl [CRIZOTINIB] | > 2000 nM |

Each compound was assayed on ALL-PO (assay: cells). Settings: Homo sapiens, ALL-PO.
Format: functional, cell-based, Homo sapiens
Description: SANGER: Inhibition of human ALL-PO cell growth in a cell viability assay.

| SMILES | IC50 |
| --- | --- |
| C[C@@H](Oc1cc(-c2cnn(C3CCNCC3)c2)cnc1N)c1c(Cl)ccc(F)c1Cl [CRIZOTINIB] | > 2000 nM |

What follows are compounds tested on KARPAS-45 (assay: cells). Settings: Homo sapiens, KARPAS-45.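 Also: inhibition of cell line growth, read out through a viability assay.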
Format: functional, cell-based, Homo sapiens
Description: SANGER: Inhibition of human KARPAS-45 cell growth in a cell viability assay.

| SMILES | IC50 |
| --- | --- |
| C[C@@H](Oc1cc(-c2cnn(C3CCNCC3)c2)cnc1N)c1c(Cl)ccc(F)c1Cl [CRIZOTINIB] | > 2000 nM |

These compounds were tested on NB5 (assay: cells). Settings: Homo sapiens, NB5.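 Also: growth inhibition of NB5 cells, read out as cell viability.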
Format: functional, cell-based, Homo sapiens
Description: SANGER: Inhibition of human NB5 cell growth in a cell viability assay.

| SMILES | IC50 |
| --- | --- |
| C[C@@H](Oc1cc(-c2cnn(C3CCNCC3)c2)cnc1N)c1c(Cl)ccc(F)c1Cl [CRIZOTINIB] | > 2000 nM |

These compounds were tested on VA-ES-BJ (assay: cells). Settings: Homo sapiens, VA-ES-BJ.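 Also: growth inhibition of the VA-ES-BJ cell line, read out by a cell viability assay.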
Format: functional, cell-based, Homo sapiens
Description: SANGER: Inhibition of human VA-ES-BJ cell growth in a cell viability assay.

| SMILES | IC50 |
| --- | --- |
| C[C@@H](Oc1cc(-c2cnn(C3CCNCC3)c2)cnc1N)c1c(Cl)ccc(F)c1Cl [CRIZOTINIB] | > 2000 nM |

Each compound was assayed on DJM-1 (assay: cells). Settings: Homo sapiens, DJM-1.
Format: functional, cell-based, Homo sapiens

| SMILES | IC50 |
| --- | --- |
| C[C@@H](Oc1cc(-c2cnn(C3CCNCC3)c2)cnc1N)c1c(Cl)ccc(F)c1Cl [CRIZOTINIB] | > 2000 nM |

What follows are compounds tested on SH-4 (assay: cells). Settings: Homo sapiens.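 Also: growth inhibition of SH-4 cells, read out with a cell viability assay.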
Format: functional, cell-based
Description: SANGER: Inhibition of human SH-4 cell growth in a cell viability assay.

| SMILES | IC50 |
| --- | --- |
| C[C@@H](Oc1cc(-c2cnn(C3CCNCC3)c2)cnc1N)c1c(Cl)ccc(F)c1Cl [CRIZOTINIB] | > 2000 nM |

These compounds were tested on Lu-65 (assay: cells). Settings: Homo sapiens, Lu-65.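 Also: growth inhibition of Lu-65 cancer cells, read out by a cell viability assay.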
Format: functional, cell-based, Homo sapiens
Description: SANGER: Inhibition of human LU-65 cell growth in a cell viability assay.

| SMILES | IC50 |
| --- | --- |
| C[C@@H](Oc1cc(-c2cnn(C3CCNCC3)c2)cnc1N)c1c(Cl)ccc(F)c1Cl [CRIZOTINIB] | > 2000 nM |

Each compound was assayed on SNU-C2B (assay: cells). Settings: Homo sapiens.
Format: functional, cell-based
Description: SANGER: Inhibition of human SNU-C2B cell growth in a cell viability assay.

| SMILES | IC50 |
| --- | --- |
| C[C@@H](Oc1cc(-c2cnn(C3CCNCC3)c2)cnc1N)c1c(Cl)ccc(F)c1Cl [CRIZOTINIB] | > 2000 nM |

These compounds were tested on EW-16 (assay: cells). Settings: Homo sapiens, EW-16.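 Also: growth inhibition of human EW-16 cells, read out as cell viability.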
Format: functional, cell-based, Homo sapiens
Description: SANGER: Inhibition of human EW-16 cell growth in a cell viability assay.

| SMILES | IC50 |
| --- | --- |
| C[C@@H](Oc1cc(-c2cnn(C3CCNCC3)c2)cnc1N)c1c(Cl)ccc(F)c1Cl [CRIZOTINIB] | > 2000 nM |

The compounds below were run on LAN-6 (assay: cells). Settings: Homo sapiens, LAN-6.
Format: functional, cell-based, Homo sapiens
Description: SANGER: Inhibition of human LAN-6 cell growth in a cell viability assay.

| SMILES | IC50 |
| --- | --- |
| C[C@@H](Oc1cc(-c2cnn(C3CCNCC3)c2)cnc1N)c1c(Cl)ccc(F)c1Cl [CRIZOTINIB] | > 2000 nM |

These compounds were tested on NCI-H1304 (assay: cells). Settings: Homo sapiens, NCI-H1304.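 Also: growth inhibition of the cancer cell line, measured in a cell viability assay.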
Format: functional, cell-based, Homo sapiens
Description: SANGER: Inhibition of human NCI-H1304 cell growth in a cell viability assay.

| SMILES | IC50 |
| --- | --- |
| C[C@@H](Oc1cc(-c2cnn(C3CCNCC3)c2)cnc1N)c1c(Cl)ccc(F)c1Cl [CRIZOTINIB] | > 2000 nM |

The compounds below were run on MC116 (assay: cells). Settings: Homo sapiens, MC116.
Format: functional, cell-based, Homo sapiens
Description: SANGER: Inhibition of human MC116 cell growth in a cell viability assay.

| SMILES | IC50 |
| --- | --- |
| C[C@@H](Oc1cc(-c2cnn(C3CCNCC3)c2)cnc1N)c1c(Cl)ccc(F)c1Cl [CRIZOTINIB] | > 2000 nM |

These compounds were tested on KE-37 (assay: cells). Settings: Homo sapiens, KE-37.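 Also: growth inhibition of KE-37 cells, read out with a cell viability assay.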
Format: functional, cell-based, Homo sapiens
Description: SANGER: Inhibition of human KE-37 cell growth in a cell viability assay.

| SMILES | IC50 |
| --- | --- |
| C[C@@H](Oc1cc(-c2cnn(C3CCNCC3)c2)cnc1N)c1c(Cl)ccc(F)c1Cl [CRIZOTINIB] | > 2000 nM |

Each compound was assayed on NKM-1 (assay: cells). Settings: Homo sapiens, NKM-1.
Format: functional, cell-based, Homo sapiens
Description: SANGER: Inhibition of human NKM-1 cell growth in a cell viability assay.

| SMILES | IC50 |
| --- | --- |
| C[C@@H](Oc1cc(-c2cnn(C3CCNCC3)c2)cnc1N)c1c(Cl)ccc(F)c1Cl [CRIZOTINIB] | > 2000 nM |

Each compound was assayed on HL-60 (assay: cells). Settings: Homo sapiens, HL-60.
Format: functional, cell-based, Homo sapiens
Description: SANGER: Inhibition of human HL-60 cell growth in a cell viability assay.

| SMILES | IC50 |
| --- | --- |
| C[C@@H](Oc1cc(-c2cnn(C3CCNCC3)c2)cnc1N)c1c(Cl)ccc(F)c1Cl [CRIZOTINIB] | > 2000 nM |

These compounds were tested on GR-ST (assay: cells). Settings: Homo sapiens, GR-ST.
Format: functional, cell-based, Homo sapiens
Description: SANGER: Inhibition of human GR-ST cell growth in a cell viability assay.

| SMILES | IC50 |
| --- | --- |
| C[C@@H](Oc1cc(-c2cnn(C3CCNCC3)c2)cnc1N)c1c(Cl)ccc(F)c1Cl [CRIZOTINIB] | > 2000 nM |

These compounds were tested on SF-126 (assay: cells). Settings: Homo sapiens, SF-126.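 Also: growth inhibition of human SF126 cells, read out with a cell viability assay.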
Format: functional, cell-based, Homo sapiens

| SMILES | IC50 |
| --- | --- |
| C[C@@H](Oc1cc(-c2cnn(C3CCNCC3)c2)cnc1N)c1c(Cl)ccc(F)c1Cl [CRIZOTINIB] | > 2000 nM |

Each compound was assayed on EW-11 (assay: cells). Settings: Homo sapiens, EW-11.
Format: functional, cell-based, Homo sapiens
Description: SANGER: Inhibition of human EW-11 cell growth in a cell viability assay.

| SMILES | IC50 |
| --- | --- |
| C[C@@H](Oc1cc(-c2cnn(C3CCNCC3)c2)cnc1N)c1c(Cl)ccc(F)c1Cl [CRIZOTINIB] | > 2000 nM |

These compounds were tested on SK-MEL-1 (assay: cells). Settings: Homo sapiens, SK-MEL-1.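 Also: growth inhibition of human SK-MEL-1 cells, read out by a cell viability assay.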
Format: functional, cell-based, Homo sapiens
Description: SANGER: Inhibition of human SK-MEL-1 cell growth in a cell viability assay.

| SMILES | IC50 |
| --- | --- |
| C[C@@H](Oc1cc(-c2cnn(C3CCNCC3)c2)cnc1N)c1c(Cl)ccc(F)c1Cl [CRIZOTINIB] | > 2000 nM |

These compounds were tested on GOTO (assay: cells). Settings: Homo sapiens, GOTO.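 Also: growth inhibition of GOTO cells, read out by a cell viability assay.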
Format: functional, cell-based, Homo sapiens
Description: SANGER: Inhibition of human GOTO cell growth in a cell viability assay.

| SMILES | IC50 |
| --- | --- |
| C[C@@H](Oc1cc(-c2cnn(C3CCNCC3)c2)cnc1N)c1c(Cl)ccc(F)c1Cl [CRIZOTINIB] | > 2000 nM |

What follows are compounds tested on KLE (assay: cells). Settings: Homo sapiens.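 Also: growth inhibition of human KLE cells, read out with a cell viability assay.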
Format: functional, cell-based
Description: SANGER: Inhibition of human KLE cell growth in a cell viability assay.

| SMILES | IC50 |
| --- | --- |
| C[C@@H](Oc1cc(-c2cnn(C3CCNCC3)c2)cnc1N)c1c(Cl)ccc(F)c1Cl [CRIZOTINIB] | > 2000 nM |

The compounds below were run on LB771-HNC (assay: cells). Settings: Homo sapiens.
Format: functional, cell-based
Description: SANGER: Inhibition of human LB771-HNC cell growth in a cell viability assay.

| SMILES | IC50 |
| --- | --- |
| C[C@@H](Oc1cc(-c2cnn(C3CCNCC3)c2)cnc1N)c1c(Cl)ccc(F)c1Cl [CRIZOTINIB] | > 2000 nM |
